Laboratory results: the NIST ThermoML archive (doi:10.1016/j.fluid.2016.02.009)

Conditions: Liquid, Vibrating tube method

CCCCCOCCCCC [dipentyl ether]
Conditions	mass density [kg/m3]
283.15 K, 100 kPa	790.99
283.15 K, 5000 kPa	794.85
283.15 K, 10000 kPa	798.47
283.15 K, 15000 kPa	801.9
283.15 K, 20000 kPa	805.2
283.15 K, 25000 kPa	808.38
283.15 K, 30000 kPa	811.47
283.15 K, 35000 kPa	814.44
283.15 K, 40000 kPa	817.31
283.15 K, 45000 kPa	820.12
283.15 K, 50000 kPa	822.84
283.15 K, 55000 kPa	825.48
283.15 K, 60000 kPa	828.06
283.15 K, 65000 kPa	830.58
288.15 K, 100 kPa	786.98
288.15 K, 5000 kPa	790.95
288.15 K, 10000 kPa	794.65
288.15 K, 15000 kPa	798.17
288.15 K, 20000 kPa	801.55
288.15 K, 25000 kPa	804.81
288.15 K, 30000 kPa	807.94
288.15 K, 35000 kPa	810.97
288.15 K, 40000 kPa	813.93
288.15 K, 45000 kPa	816.78
288.15 K, 50000 kPa	819.54
288.15 K, 55000 kPa	822.24
288.15 K, 60000 kPa	824.87
288.15 K, 65000 kPa	827.41
293.15 K, 100 kPa	782.96
293.15 K, 5000 kPa	787.04
293.15 K, 10000 kPa	790.83
293.15 K, 15000 kPa	794.44
293.15 K, 20000 kPa	797.91
293.15 K, 25000 kPa	801.23
293.15 K, 30000 kPa	804.44
293.15 K, 35000 kPa	807.54
293.15 K, 40000 kPa	810.53
293.15 K, 45000 kPa	813.44
293.15 K, 50000 kPa	816.26
293.15 K, 55000 kPa	819.01
293.15 K, 60000 kPa	821.67
293.15 K, 65000 kPa	824.26
298.15 K, 100 kPa	778.94
298.15 K, 5000 kPa	783.12
298.15 K, 10000 kPa	787.02
298.15 K, 15000 kPa	790.73
298.15 K, 20000 kPa	794.27
298.15 K, 25000 kPa	797.69
298.15 K, 30000 kPa	800.97
298.15 K, 35000 kPa	804.13
298.15 K, 40000 kPa	807.2
298.15 K, 45000 kPa	810.16
298.15 K, 50000 kPa	813.04
298.15 K, 55000 kPa	815.82
298.15 K, 60000 kPa	818.54
298.15 K, 65000 kPa	821.19
303.15 K, 100 kPa	774.9
303.15 K, 5000 kPa	779.22
303.15 K, 10000 kPa	783.2
303.15 K, 15000 kPa	787
303.15 K, 20000 kPa	790.65
303.15 K, 25000 kPa	794.13
303.15 K, 30000 kPa	797.48
303.15 K, 35000 kPa	800.72
303.15 K, 40000 kPa	803.84
303.15 K, 45000 kPa	806.86
303.15 K, 50000 kPa	809.78
303.15 K, 55000 kPa	812.62
303.15 K, 60000 kPa	815.39
303.15 K, 65000 kPa	818.05
308.15 K, 100 kPa	770.87
308.15 K, 5000 kPa	775.29
308.15 K, 10000 kPa	779.38
308.15 K, 15000 kPa	783.28
308.15 K, 20000 kPa	787
308.15 K, 25000 kPa	790.57
308.15 K, 30000 kPa	793.99
308.15 K, 35000 kPa	797.3
308.15 K, 40000 kPa	800.48
308.15 K, 45000 kPa	803.56
308.15 K, 50000 kPa	806.55
308.15 K, 55000 kPa	809.43
308.15 K, 60000 kPa	812.24
308.15 K, 65000 kPa	814.95
313.15 K, 100 kPa	766.82
313.15 K, 5000 kPa	771.35
313.15 K, 10000 kPa	775.57
313.15 K, 15000 kPa	779.56
313.15 K, 20000 kPa	783.37
313.15 K, 25000 kPa	787.03
313.15 K, 30000 kPa	790.53
313.15 K, 35000 kPa	793.9
313.15 K, 40000 kPa	797.15
313.15 K, 45000 kPa	800.28
313.15 K, 50000 kPa	803.33
313.15 K, 55000 kPa	806.26
313.15 K, 60000 kPa	809.11
313.15 K, 65000 kPa	811.88
318.15 K, 100 kPa	762.76
318.15 K, 5000 kPa	767.42
318.15 K, 10000 kPa	771.74
318.15 K, 15000 kPa	775.84
318.15 K, 20000 kPa	779.77
318.15 K, 25000 kPa	783.5
318.15 K, 30000 kPa	787.08
318.15 K, 35000 kPa	790.52
318.15 K, 40000 kPa	793.82
318.15 K, 45000 kPa	797.02
318.15 K, 50000 kPa	800.1
318.15 K, 55000 kPa	803.09
318.15 K, 60000 kPa	806
318.15 K, 65000 kPa	808.83
323.15 K, 100 kPa	758.69
323.15 K, 5000 kPa	763.48
323.15 K, 10000 kPa	767.94
323.15 K, 15000 kPa	772.13
323.15 K, 20000 kPa	776.12
323.15 K, 25000 kPa	779.95
323.15 K, 30000 kPa	783.62
323.15 K, 35000 kPa	787.13
323.15 K, 40000 kPa	790.51
323.15 K, 45000 kPa	793.75
323.15 K, 50000 kPa	796.9
323.15 K, 55000 kPa	799.95
323.15 K, 60000 kPa	802.89
323.15 K, 65000 kPa	805.77
328.15 K, 100 kPa	754.6
328.15 K, 5000 kPa	759.51
328.15 K, 10000 kPa	764.08
328.15 K, 15000 kPa	768.39
328.15 K, 20000 kPa	772.51
328.15 K, 25000 kPa	776.42
328.15 K, 30000 kPa	780.18
328.15 K, 35000 kPa	783.75
328.15 K, 40000 kPa	787.17
328.15 K, 45000 kPa	790.5
328.15 K, 50000 kPa	793.7
328.15 K, 55000 kPa	796.82
328.15 K, 60000 kPa	799.82
328.15 K, 65000 kPa	802.72
333.15 K, 100 kPa	750.51
333.15 K, 5000 kPa	755.54
333.15 K, 10000 kPa	760.26
333.15 K, 15000 kPa	764.69
333.15 K, 20000 kPa	768.87
333.15 K, 25000 kPa	772.87
333.15 K, 30000 kPa	776.68
333.15 K, 35000 kPa	780.35
333.15 K, 40000 kPa	783.87
333.15 K, 45000 kPa	787.29
333.15 K, 50000 kPa	790.54
333.15 K, 55000 kPa	793.66
333.15 K, 60000 kPa	796.72
333.15 K, 65000 kPa	799.67
